In patent publication US20210000912A1, “Compositions And Methods For Prophylaxis Or Treatment Of Pain” (Interk Peptide Therapeutics Limited, priority 2017, published 2021):

Key:
c-Src (h) = target: T1, c-Src (h) (Homo sapiens, UniProt P12931); experiment: c-Src kinase activity assay, cell free; format: biochemical
T1 construct: purchased Eurofins Pharma Discovery Services UK Ltd (contract assay service)
Experimental: The capacity of test peptides to inhibit the activity of the kinases PKG1α, PKG1β, and Src family kinases in a cell free assay was assessed. The test peptides were amidated at their C-terminal end (indicated by “—NH2”) unless otherwise noted. Kinase activity assays were conducted by Eurofins Pharma Discovery Services UK Ltd (Dundee Technology Park, Dundee, United Kingdom) and Reaction Biology Corp. (Malvern, Pa., USA).
All test peptides are prepared to 50× final assay concentration in 100% DMSO. This working stock of the test compound is added to assay wells as the first component in the reaction, followed by the remaining components of the respective assay protocols described below. There is no pre-incubation step between the test peptide and the kinase prior to initiation of the reaction. The kinases are diluted in buffer (20 mM MOPS, 1 mM EDTA, 0.01% Brij-35, 5% Glycerol, 0.1% β-mercaptoethanol, 1 mg/mL BSA) prior to addition to the reaction mix.
Positive control wells contain all components of the reaction, except the test peptide of interest. However, DMSO (at a final concentration of 2%) is included in positive control wells to control for solvent effects. Negative control wells contain all components of the reaction, with a reference inhibitor (staurosporine) replacing the test peptide. This abolishes kinase activity and establishes a base-line (0% kinase activity). Kinase assay protocols (Eurofins Pharma Discovery Services UK Ltd, Dundee Technology Park, Dundee, United Kingdom) are described below. Of the Src family kinases, only the assay protocol for c-Src is shown.
c-Src (h) is incubated with 8 mM MOPS pH 7.0, 0.2 mM EDTA, 250 μM KVEKIGEGTYGVVYK (Cdc2 peptide), 10 mM MgAcetate and [γ-^33P]-ATP (specific activity approx. 500 cpm/pmol, concentration as required). The reaction is initiated by the addition of the MgATP mix. After incubation for 40 minutes at room temperature, the reaction is stopped by the addition of 3% phosphoric acid solution. A 10 μL aliquot of the reaction is then spotted onto a P30 filtermat and washed three times for 5 minutes in 75 mM phosphoric acid and once in methanol prior to drying and scintillation counting.

nerve injured rats = experiment: Intrathecal testing in neuropathic pain model, von Frey paw withdrawal threshold; format: in vivo, Sprague-Dawley rats; conditions: administered intrathecally, on a molar basis
Experimental: Experiments were performed on male Sprague-Dawley rats weighing 300-400 g at the start of experiments. Animals were housed 2 or 3 per cage until cannula surgery, after which time they were singly housed for 4 days until the day of experiment. Animals were maintained on standard 12-h light/dark cycle with food and water available ad libitum.
After baseline von Frey measures were taken, animals underwent partial nerve ligation (PNL) surgery, as previously described (Seltzer, Z., Dubner, R., Shir, Y., 1990. A novel behavioural-model of neuropathic pain disorders produced in rats by partial sciatic-nerve injury. Pain 43, 205-218). Briefly, animals were deeply anaesthetised using isoflurane (2.0-2.5% in oxygen), and the sciatic nerve of the left hind-leg was exposed via blunt dissection of the biceps femoris at a site near the trochanter, just distal to the posterior biceps semitendinosus nerve branches of the common sciatic nerve. A 6-0 silk suture was used to tightly ligate the dorsal 30-50% of the nerve. […]
Mechanical paw withdrawal threshold (PWT) was measured using a series of von Frey hairs with bending pressures ranging from 0.41 to 15.1 g. […] The mechanical PWT was calculated using the up-down paradigm (Dixon, W. J., 1980. Efficient analysis of experimental-observations. Annual Review of Pharmacology and Toxicology 20, 441-462). […]

[1] = Resistance to simulated gastric fluid; format: in vitro ADME
Experimental: Test 14 Arg peptides consisting of 14 contiguous L- or D-arginine amino acids were tested for resistance to simulated gastric fluid (porcine pepsin in a HCl and NaCl solution) at a pH of 2.01 for a period of 24 hours. Negligible degradation of each peptide was observed by exposure to the simulated gastric fluid over the 24 hour test period.

T1 sequence (P12931 whole entry): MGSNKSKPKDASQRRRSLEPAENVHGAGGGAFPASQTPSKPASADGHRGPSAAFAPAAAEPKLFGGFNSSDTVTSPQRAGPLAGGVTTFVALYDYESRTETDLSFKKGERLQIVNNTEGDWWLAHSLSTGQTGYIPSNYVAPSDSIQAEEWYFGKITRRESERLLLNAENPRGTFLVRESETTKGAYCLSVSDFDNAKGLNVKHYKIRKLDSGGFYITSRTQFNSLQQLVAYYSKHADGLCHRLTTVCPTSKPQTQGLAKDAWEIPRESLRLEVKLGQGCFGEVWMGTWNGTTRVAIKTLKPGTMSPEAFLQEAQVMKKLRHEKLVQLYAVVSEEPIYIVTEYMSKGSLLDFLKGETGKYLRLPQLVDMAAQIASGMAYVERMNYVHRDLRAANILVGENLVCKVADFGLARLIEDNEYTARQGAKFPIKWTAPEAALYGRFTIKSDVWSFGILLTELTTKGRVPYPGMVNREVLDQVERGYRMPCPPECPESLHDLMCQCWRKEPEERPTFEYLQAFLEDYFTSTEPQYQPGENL

With `N=C(N)NCCC[C@H](NC(=O)[C@H](CCCNC(=N)N)NC(=O)[C@H](CCCNC(=N)N)NC(=O)[C@H](CCCNC(=N)N)NC(=O)[C@H](CCCNC(=N)N)NC(=O)[C@H](CCCNC(=N)N)NC(=O)[C@H](CCCNC(=N)N)NC(=O)[C@H](CCCNC(=N)N)NC(=O)[C@H](CCCNC(=N)N)NC(=O)[C@H](CCCNC(=N)N)NC(=O)[C@H](CCCNC(=N)N)NC(=O)[C@H](CCCNC(=N)N)NC(=O)[C@H](CCCNC(=N)N)NC(=O)[C@@H](N)CCCNC(=N)N)C(N)=O` [IK01400, RRRRRRRRRRRRRR-NH2] the IC50 (c-Src (h)) was 5.5 nM, the “alleviating neuropathic pain (ipsilateral von Frey PWT) compared to morphine” value (nerve injured rats) was “more effective in alleviating neuropathic pain than morphine on a molar basis” and the remaining at 1 h ([1]; pig, simulated gastric fluid with porcine pepsin, simulated gastric fluid pH 2.01, 1 hr, read-out: % of intact peptide observed) was 99.5%. The remaining at 4 h ([1]; pig, simulated gastric fluid with porcine pepsin, simulated gastric fluid pH 2.01, 4 hrs, read-out: % of intact peptide observed) was 98.5%, the remaining at 24 h ([1]; pig, simulated gastric fluid with porcine pepsin, simulated gastric fluid pH 2.01, 24 hrs, read-out: % of intact peptide observed) was 98.2% and the “% of intact peptide observed” value ([1]; simulated gastric fluid pH 2.01, time 0) was 98.51%.
